Here are results for 13 compounds from ChEMBL document CHEMBL1201862, “PubChem BioAssay data set” (2004).

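Five compound concentrations were applied to cells in 96-well plates for 48 hours; endpoints were derived by simple linear interpolation of the resulting dose-response curve. GI50 marks 50% less growth.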 Active and inactive are the calls of the source. Rule as the data show it: active = GI50 up to about 1.1 µM and inactive = higher.

Some test systems named below: ACHN; DU-145; HCT-116; HL-60; HOP-62; Hs-578T; MOLT-4; OVCAR-3; OVCAR-4; SF-268; SF-539; SK-MEL-5; SR; SW-620; T47D; TK-10; UACC-62; HCC 2998.
Experiment in all cases: inhibition of tumour cell growth, NCI panel, 48 h

On to `Clc1ccccc1CN1COc2c(cc(Cl)c3cccnc23)C1`, for which the GI50 in the assay on ACHN was 1.84 µM (inactive); in the assay on DU-145 it was 7.19 µM (inactive); in the assay with HCT-116 it was 3.64 µM (inactive); in the assay with HL-60, 0.398 µM (active); in the assay on HOP-62, 3.05 µM (inactive); in the assay on Hs-578T, 4.62 µM (inactive). The GI50 in the assay on MOLT-4 was 0.28 µM (active); with OVCAR-3, 6.59 µM (inactive); in the assay with OVCAR-4, 3.97 µM (inactive); in the assay with SF-268, 5.18 µM (inactive); in the assay on SF-539, 2.69 µM (inactive); in the assay with SK-MEL-5, 1.38 µM (inactive). Besides, the GI50 in the assay with SR is 0.439 µM (active); with SW-620, 5.01 µM (inactive); in the assay on T47D, 6.05 µM (inactive); in the assay with TK-10, 3.44 µM (inactive); in the assay with UACC-62, 1.52 µM (inactive).
As to `O=C1NC(O)n2c(=O)[nH]c(=O)n21` (stereo not drawn), the GI50 in the assay on ACHN is > 100 µM (inactive); in the assay on HCC 2998, > 100 µM (inactive); with HCT-116, > 100 µM (inactive); in the assay on HL-60, 71 µM (inactive); in the assay with HOP-62 it was > 100 µM (inactive); in the assay on MOLT-4, > 100 µM (inactive). For the same compound, the GI50 in the assay with OVCAR-3, in the assay on OVCAR-4, with SF-268, in the assay with SF-539, in the assay on SK-MEL-5 and in the assay on SR was > 100 µM (inactive) each time. The GI50 in the assay on SW-620, with TK-10 and with UACC-62 was > 100 µM (inactive) each time.
For `Clc1ccc(C2=NOC(C3CCCCC3)C2)cc1` (stereo not drawn), the GI50 with ACHN, in the assay with HCC 2998, with HCT-116, in the assay with HL-60, in the assay with HOP-62 and in the assay with MOLT-4 was > 100 µM (inactive) in each case. Moreover, the GI50 in the assay with OVCAR-3, in the assay with OVCAR-4, with SF-268, in the assay with SF-539, in the assay on SK-MEL-5 and in the assay with SR was > 100 µM (inactive) in each case. Besides, the GI50 with SW-620, in the assay with TK-10 and with UACC-62 was > 100 µM (inactive) each time.
In the case of `COc1ccccc1C1c2cc3c(cc2OC(O)(CO)C1C(=O)O)OCO3.COc1ccccc1C1c2cc3c(cc2OC2(O)COC(=O)C12)OCO3` (stereo not drawn), the GI50 with ACHN was > 100 µM (inactive); in the assay on HCC 2998, > 100 µM (inactive); in the assay with HCT-116, > 100 µM (inactive); in the assay on HL-60 it was 95.1 µM (inactive); in the assay on HOP-62 it was > 100 µM (inactive); with MOLT-4, 70 µM (inactive). In addition, the GI50 in the assay with OVCAR-3, in the assay on OVCAR-4, in the assay with SF-268, in the assay with SF-539, with SK-MEL-5 and with SR was > 100 µM (inactive) in each case. Besides, the GI50 in the assay on SW-620, in the assay on TK-10 and in the assay on UACC-62 was > 100 µM (inactive) in each case.
For `O=C1CCCc2c(O)ccc(O)c21`, the GI50 with ACHN was > 100 µM (inactive); in the assay on HCC 2998, > 100 µM (inactive); in the assay on HCT-116, > 100 µM (inactive); in the assay with HL-60, 22.8 µM (inactive); in the assay on HOP-62 it was > 100 µM (inactive); in the assay on MOLT-4 it was 27.9 µM (inactive). For the same compound, the GI50 in the assay on OVCAR-3 is > 100 µM (inactive); in the assay on OVCAR-4, > 100 µM (inactive); in the assay on SF-268, 48.5 µM (inactive); with SF-539 it was > 100 µM (inactive); in the assay on SK-MEL-5 it was > 100 µM (inactive); in the assay with SR, 28.3 µM (inactive). Further, the GI50 is 61.2 µM (inactive) with SW-620, > 100 µM (inactive) with TK-10 and > 100 µM (inactive) in the assay on UACC-62.
On to `N#CC1C[C@@H]2CC3(CCC2CN1C(=O)c1ccccc1)OCCO3` (stereo partly drawn), for which the GI50 in the assay on ACHN, with HCC 2998, in the assay with HCT-116, with HL-60, with HOP-62 and in the assay on MOLT-4 was > 100 µM (inactive) throughout. Moreover, the GI50 in the assay on OVCAR-3 is > 100 µM (inactive); with OVCAR-4, > 100 µM (inactive); in the assay with SF-268, > 100 µM (inactive); in the assay with SF-539 it was > 100 µM (inactive); in the assay on SK-MEL-5 it was > 100 µM (inactive); in the assay on SR, 0.607 µM (active). In addition, the GI50 in the assay with SW-620, in the assay with TK-10 and in the assay on UACC-62 was > 100 µM (inactive) each time.
In the case of `CCOC(=O)C(C[Si](C)(C)C)P(=O)(OCC)OCC` (stereo not drawn), the GI50 in the assay with ACHN, in the assay with HCC 2998, with HCT-116, with HL-60, with HOP-62 and with MOLT-4 was > 100 µM (inactive) in each case. For the same compound, the GI50 in the assay on OVCAR-3, in the assay with OVCAR-4, with SF-268, with SF-539, in the assay on SK-MEL-5 and in the assay with SR was > 100 µM (inactive) each time. The GI50 with SW-620, in the assay on TK-10 and in the assay with UACC-62 was > 100 µM (inactive) in each case.
On to `COc1ccc2c(c1)CCc1cnn(C3OC(COC(C)=O)C(OC(C)=O)C(OC(C)=O)C3OC(C)=O)c1-2` (stereo not drawn), for which the GI50 in the assay with ACHN is > 100 µM (inactive); with HCC 2998 it was > 100 µM (inactive); in the assay on HCT-116 it was > 100 µM (inactive); with HL-60 it was > 100 µM (inactive); with HOP-62 it was > 100 µM (inactive); with MOLT-4, 29.2 µM (inactive). The GI50 in the assay with OVCAR-3 was 23.9 µM (inactive); in the assay with SF-268, > 100 µM (inactive); in the assay with SF-539, > 100 µM (inactive); with SK-MEL-5, 44.4 µM (inactive); with SR it was 26.1 µM (inactive); in the assay on SW-620, 18.4 µM (inactive). The results for the GI50 with TK-10 and with UACC-62 were > 100 µM (inactive) and 66.5 µM (inactive), respectively.
As to `CC(=O)N(N=O)c1ccc(N(N=O)C(C)=O)cc1`, the GI50 with ACHN, in the assay on HCC 2998, in the assay with HCT-116, in the assay with HL-60, with HOP-62 and with MOLT-4 was > 100 µM (inactive) throughout. For the same compound, the GI50 in the assay with OVCAR-3, in the assay with OVCAR-4, with SF-268, with SF-539, in the assay on SK-MEL-5 and in the assay with SR was > 100 µM (inactive) throughout. The GI50 in the assay on SW-620 and in the assay with UACC-62 was > 100 µM (inactive) throughout.
Regarding `O=C1CC(S(=O)(=O)O)C=C1Nc1cccc(Cl)c1` (stereo not drawn), the GI50 in the assay with ACHN, in the assay on HCC 2998, with HCT-116, in the assay with HL-60, in the assay with HOP-62 and with MOLT-4 was > 100 µM (inactive) each time. Besides, the GI50 in the assay with OVCAR-3, with OVCAR-4, in the assay with SF-268, in the assay on SF-539, in the assay with SK-MEL-5 and in the assay on SR was > 100 µM (inactive) each time. Moreover, the GI50 in the assay with SW-620, with TK-10 and with UACC-62 was > 100 µM (inactive) each time.
Regarding `CCOC(=O)/C=C/c1ccccn1`, the GI50 in the assay on ACHN, in the assay with HCC 2998, in the assay with HCT-116, with HL-60, in the assay on HOP-62 and with MOLT-4 was > 100 µM (inactive) each time. Also, the GI50 in the assay on OVCAR-4, in the assay on SF-268, with SF-539, in the assay on SK-MEL-5, in the assay on SR and with SW-620 was > 100 µM (inactive) throughout. The GI50 in the assay with TK-10 and with UACC-62 was > 100 µM (inactive) throughout.
As for `CC(N)Cc1ccc(Cl)c(Cl)c1` (stereo not drawn), the GI50 in the assay on ACHN was 26.8 µM (inactive); in the assay with HCC 2998 it was 17.3 µM (inactive); in the assay with HCT-116, 35.1 µM (inactive); in the assay on HL-60, 18.6 µM (inactive); with HOP-62, 39.5 µM (inactive); in the assay with MOLT-4 it was 29.2 µM (inactive). For the same compound, the GI50 was 69.3 µM (inactive) in the assay with OVCAR-3; 67.8 µM (inactive) with OVCAR-4; 71.8 µM (inactive) in the assay on SF-268; 12.4 µM (inactive) in the assay with SF-539; 16.6 µM (inactive) in the assay on SK-MEL-5; 20.5 µM (inactive) in the assay on SR. In addition, the GI50 is 22 µM (inactive) with SW-620, 22.6 µM (inactive) with TK-10 and 22.8 µM (inactive) in the assay with UACC-62.
As for `CCOC1C(Br)Cn2c(=O)c3cc4ccccc4cc3c(=O)n2C1C` (stereo not drawn), the GI50 with ACHN is > 100 µM (inactive); with HCC 2998, 50.6 µM (inactive); in the assay on HCT-116, 58.9 µM (inactive); with HL-60, 44.9 µM (inactive); in the assay on HOP-62, > 100 µM (inactive); with MOLT-4 it was 29.4 µM (inactive). Also, the GI50 in the assay with OVCAR-3 was > 100 µM (inactive); in the assay with OVCAR-4, > 100 µM (inactive); with SF-268, > 100 µM (inactive); in the assay on SF-539 it was > 100 µM (inactive); in the assay on SK-MEL-5 it was 31.1 µM (inactive); in the assay on SR, 34 µM (inactive). In addition, the GI50 in the assay with SW-620 is 91.8 µM (inactive); with TK-10, > 100 µM (inactive).
